Values after ≈ are worked out from the molar mass of the structure shown. Some results are limits rather than exact numbers.

Here are results for one compound from ChEMBL document CHEMBL1145658, “Catharanthus alkaloids XXXVII. 16-Epi-Z-isositsirikine, a monomeric indole alkaloid with antineoplastic activity from Catharanthus roseus and Rhazya stricta” (1983).

For one test, the system named is KB. Put plainly: Cytotoxicity against human KB cells. It counts as functional. The conditions noted are these: read-out: ED50 (the source's name).
For the next test, the system named is P388. As to the kind of experiment: In vivo antitumor activity against mouse P388 cells at 2.5 to 10 mg/kg relative to control. Format: functional. The conditions noted are these: dose mg/kg 2.5-10.

On to `C/C=C1\CN2CCc3c([nH]c4ccccc34)[C@@H]2C[C@@H]1[C@@H](CO)C(=O)OC`, for which, in the test with KB, the EC50 stood at 1.2 µg/mL (≈ 3.39 µM). Besides, the T/C result with P388 is “>=150%”.
